Laboratory results from patent US12433961B2, “Near-infrared fluorescent probe specifically targeting tumors as well as synthesis method and use thereof” (NANJING NUOYUAN MEDICAL INSTRUMENT CO. LTD, priority 2022, dated 2025).

System: colorectal cancer HT29 subcutaneous tumor
Test: In-vivo near-infrared fluorescence imaging in subcutaneous HT29 tumor-bearing mouse model
Conditions: HT29 tumor-bearing mice, 30 nmol tail vein, imaging 0 h-48 h
Method: In a subcutaneous tumor HT29 tumor-bearing mouse model, YQ-H (30 nmol, dissolved with 100 μL of normal saline for injection) series probes respectively underwent tail vein administration, fluorescence imaging was respectively photographed at different time points (0 h, 6 h, 12 h, 24 h and 48 h in sequence) by small animal living imaging CCD.

fluorescence signals in liver: strong fluorescence signals in liver
Compound: CC1(C)C(/C=C/C2=C(SCCC(=O)NCCCCCC(=O)N(CCS(C)(=O)=O)Cc3ccc(-c4ccc5ncnc(Nc6ccc(OCc7cccc(F)c7)c(Cl)c6)c5c4)o3)C(=C/C=C3/N(CCCS(=O)(=O)O)c4ccc(S(=O)(=O)O)cc4C3(C)C)/CCC2)=[N+](CCCS(=O)(=O)O)c2ccc(S(=O)(=O)[O-])cc21 [YQ-H-03]
tumor targeting effect: a certain tumor targeting effect
